Data reported in patent US11407760B2, “Dioxinoquinoline compounds, preparation method and uses thereof” (BEIJING SCITECH-MQ PHARMACEUTICALS LIMITED, priority 2018, dated 2022).

How the values were obtained:
c-MET kinase = c-MET kinase (Homo sapiens (Human), UniProt P08581); assay: Assay of small molecular compounds for inhibiting the activity of c-MET kinase (LANCE TR-FRET); assay type: biochemical; settings: c-MET tyrosine kinase, 60 min reaction
Description: Biological Example 1. Assay of Small Molecular Compounds for Inhibiting the Activity of c-MET Kinase
(§1) The assay is based on the LANCE TR-FRET technology of Perkin Elmer Inc., and the assay method is as follows:
(§2) 1. Dilution of compounds: a total of 11 concentrations were obtained using a 3-fold gradient dilution from the highest concentration of 2500 nM (the maximum final concentration of the drug used in this assay was 2500 nM, and the minimum final concentration was 0.042 nM).
(§3) 2. 2.5 μL of the gradient-diluted compounds were taken with a transfer pipette to a 384-well plate.
3. Addition of enzyme: 5 μL of 2× c-MET kinase solution (concentration was 2 nM) was taken with a transfer pipette to the corresponding reaction well of the 384-well plate, mixed well and pre-reacted at room temperature for 5 minutes.
4. 2.5 μL 4× Ultra ULight™-JAK-1 (Tyr1023) Peptide (concentration was 400 nM)/ATP (concentration was 40 μM) mixture was taken with a transfer pipette to the corresponding reaction well of the 384-well plate.
(§4) 5. Negative control: 2.5 μL/well 4× substrate/ATP mixture and 7.5 μL 1× Kinase Assay Buffer were added to the wells of the 384-well plate.
6. Positive control: 2.5 μL/well 4× substrate/ATP mixture, 2.5 μL/well 1× Kinase Assay Buffer containing 16% DMSO, and 5 µL/well 2× c-MET kinase solution were added to the 384-well plate. The final concentration of DMSO in the reaction system was 4%.
(§5) 7. The mixture was mixed well and then centrifuged and reacted at room temperature in dark for 60 min.
(§6) 8. Termination of the enzymatic reaction: 5 μL of 4× stop solution was taken with a transfer pipette to the wells of the 384-well plate, mixed and then centrifuged, and reacted at room temperature for 5 min.
(§7) 9. Development of the reaction: 5 μL of 4× detection solution was taken with a transfer pipette to the wells of the 384-well plate for color development, and the mixture was mixed and then centrifuged and reacted at room temperature for 60 min.
(§8) 10. The 384-well plate was placed into the Envision plate reader and the signal was detected using the appropriate program.
11. […]

VEGFR-2 kinase = VEGFR-2 kinase (Homo sapiens (Human), UniProt P35968); assay: Assay of small molecular compounds for inhibiting the activity of VEGFR-2 kinase (LANCE TR-FRET); assay type: biochemical; settings: VEGFR-2 tyrosine kinase, 60 min reaction
Description: Biological Example 2. Assay of Small Molecular Compounds for Inhibiting the Activity of VEGFR-2 Kinase
as §1, §2, §3
3. Addition of enzyme: 5 μL of 2× VEGFR-2 kinase solution (concentration was 0.5 nM) was taken with a transfer pipette to the corresponding reaction well of the 384-well plate, mixed well and pre-reacted at room temperature for 30 minutes.
4. 2.5 μL 4× Ultra ULight™-JAK-1 (Tyr1023) Peptide (concentration was 200 nM)/ATP (concentration was 40 μM) mixture was taken with a transfer pipette to the corresponding reaction well of the 384-well plate.
as §4
6. Positive control: 2.5 μL/well 4× substrate/ATP mixture, 2.5 μL/well 1× Kinase Assay Buffer containing 16% DMSO, and 5 μL/well 2× VEGFR-2 kinase solution were added to the 384-well plate. The final concentration of DMSO in the reaction system was 4%.
as §5, §6, §7, §8
11. Analysis and processing of the raw data:
The drug concentrations and the corresponding inhibition rates were input into GraphPad Prism5 for calculation, and the inhibition rate of the compounds were calculated as follows: inhibition rate (%)=(reading of positive well−reading of experimental well)/(reading of positive control well−reading of negative control well)×100%. Processing with GraphPad Prism5 software yielded the corresponding IC50 values (the concentration of the compound at which 50% of the highest inhibition of the enzyme is achieved).

MHCC97H cells = assay: Inhibitory activity on the proliferation of MHCC97H cells (CCK-8); assay type: cell-based; settings: Homo sapiens, MHCC97H cell proliferation, 72 hours of incubation
Description: Biological Example 3. Assay of the Inhibitory Activity of Small Molecular Compounds on the Proliferation of MHCC97H Cells
The specific steps of the assay are as follows:
1. Dilution of compounds: a total of 9 concentrations were obtained using a 3-fold gradient dilution from the highest concentration of 5000 nM (the maximum final concentration of the drug used in this assay was 5000 nM, and the minimum final concentration was 0.76 nM).
2. MHCC97H cells were collected, then transferred to a 15 mL centrifuge tube, and centrifuged at 1000 rpm for 5 minutes.
3. The supernatant was discarded, and the complete medium was added and pipetted evenly, 10 μL of cell suspension was taken out and mixed evenly with 10 μL of 0.4% trypan blue, the counting was carried out with a cell counter, and the number and survival rate of cells were recorded;
4. The cell suspension was seeded into a 96-well plate at 5000 cells/80 μL per well;
5. 20 μL of the corresponding 5× compound solution diluted with the medium mentioned above was added to each well and mixed evenly;
6. After 72 hours of incubation, 10 μL of CCK-8 reagent was added to each well and incubated for another 2 hours (the reaction time can be adjusted according to the color depth);
7. The OD value was read at 450 nm on a multi-function plate reader.
8. Data processing: cell survival rate (%)=[(As−Ab)/(Ac−Ab)]*100%
As: OD value of assay well (medium containing cells, CCK-8, compound),
Ac: OD value of control well (medium containing cells, CCK-8),
Ab: OD value of blank well (CCK-8, medium without cell and compound),
The values were then imported into Graphpad Prism5 software for curve fitting, and IC50 was calculated.
Table 3 lists the assay results of the inhibitory activity of some compounds disclosed herein on the proliferation of the MHCC97H cell line.

Sequence of c-MET kinase (P08581 25-1390): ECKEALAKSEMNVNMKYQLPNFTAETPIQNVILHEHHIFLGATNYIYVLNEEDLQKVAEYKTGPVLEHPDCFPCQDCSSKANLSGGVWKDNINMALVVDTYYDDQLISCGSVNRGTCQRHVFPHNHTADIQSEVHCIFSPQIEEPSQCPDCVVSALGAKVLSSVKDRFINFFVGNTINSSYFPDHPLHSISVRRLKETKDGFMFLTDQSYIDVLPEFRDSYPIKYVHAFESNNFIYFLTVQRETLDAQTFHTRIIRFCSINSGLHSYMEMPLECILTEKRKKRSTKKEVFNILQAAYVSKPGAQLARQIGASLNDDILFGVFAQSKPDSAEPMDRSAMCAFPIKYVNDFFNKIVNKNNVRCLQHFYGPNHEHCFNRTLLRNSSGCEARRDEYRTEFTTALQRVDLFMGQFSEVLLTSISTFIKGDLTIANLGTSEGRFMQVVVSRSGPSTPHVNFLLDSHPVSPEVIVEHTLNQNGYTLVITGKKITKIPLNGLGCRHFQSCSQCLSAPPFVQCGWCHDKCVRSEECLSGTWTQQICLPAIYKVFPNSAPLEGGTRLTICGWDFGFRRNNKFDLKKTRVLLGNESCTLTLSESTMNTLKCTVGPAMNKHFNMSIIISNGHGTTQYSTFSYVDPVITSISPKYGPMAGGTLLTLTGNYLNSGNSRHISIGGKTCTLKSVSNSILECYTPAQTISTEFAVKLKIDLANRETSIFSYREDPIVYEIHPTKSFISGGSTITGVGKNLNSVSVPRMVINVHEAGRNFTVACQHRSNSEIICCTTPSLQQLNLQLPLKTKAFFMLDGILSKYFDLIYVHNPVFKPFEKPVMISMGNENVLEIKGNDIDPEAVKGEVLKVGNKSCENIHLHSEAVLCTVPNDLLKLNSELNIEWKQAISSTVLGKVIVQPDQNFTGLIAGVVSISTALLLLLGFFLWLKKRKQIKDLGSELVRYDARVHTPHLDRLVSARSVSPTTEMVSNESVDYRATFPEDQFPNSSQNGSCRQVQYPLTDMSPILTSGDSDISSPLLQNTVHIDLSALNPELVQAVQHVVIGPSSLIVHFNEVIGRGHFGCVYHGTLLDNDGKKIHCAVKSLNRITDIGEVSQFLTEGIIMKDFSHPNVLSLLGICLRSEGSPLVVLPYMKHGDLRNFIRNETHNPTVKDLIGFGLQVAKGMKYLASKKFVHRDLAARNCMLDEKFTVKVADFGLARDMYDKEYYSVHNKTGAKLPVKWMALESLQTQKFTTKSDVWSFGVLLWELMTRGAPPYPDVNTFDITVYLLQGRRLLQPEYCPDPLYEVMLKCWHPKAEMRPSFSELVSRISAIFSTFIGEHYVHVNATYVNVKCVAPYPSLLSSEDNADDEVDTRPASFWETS
Sequence of VEGFR-2 kinase (P35968 20-1356): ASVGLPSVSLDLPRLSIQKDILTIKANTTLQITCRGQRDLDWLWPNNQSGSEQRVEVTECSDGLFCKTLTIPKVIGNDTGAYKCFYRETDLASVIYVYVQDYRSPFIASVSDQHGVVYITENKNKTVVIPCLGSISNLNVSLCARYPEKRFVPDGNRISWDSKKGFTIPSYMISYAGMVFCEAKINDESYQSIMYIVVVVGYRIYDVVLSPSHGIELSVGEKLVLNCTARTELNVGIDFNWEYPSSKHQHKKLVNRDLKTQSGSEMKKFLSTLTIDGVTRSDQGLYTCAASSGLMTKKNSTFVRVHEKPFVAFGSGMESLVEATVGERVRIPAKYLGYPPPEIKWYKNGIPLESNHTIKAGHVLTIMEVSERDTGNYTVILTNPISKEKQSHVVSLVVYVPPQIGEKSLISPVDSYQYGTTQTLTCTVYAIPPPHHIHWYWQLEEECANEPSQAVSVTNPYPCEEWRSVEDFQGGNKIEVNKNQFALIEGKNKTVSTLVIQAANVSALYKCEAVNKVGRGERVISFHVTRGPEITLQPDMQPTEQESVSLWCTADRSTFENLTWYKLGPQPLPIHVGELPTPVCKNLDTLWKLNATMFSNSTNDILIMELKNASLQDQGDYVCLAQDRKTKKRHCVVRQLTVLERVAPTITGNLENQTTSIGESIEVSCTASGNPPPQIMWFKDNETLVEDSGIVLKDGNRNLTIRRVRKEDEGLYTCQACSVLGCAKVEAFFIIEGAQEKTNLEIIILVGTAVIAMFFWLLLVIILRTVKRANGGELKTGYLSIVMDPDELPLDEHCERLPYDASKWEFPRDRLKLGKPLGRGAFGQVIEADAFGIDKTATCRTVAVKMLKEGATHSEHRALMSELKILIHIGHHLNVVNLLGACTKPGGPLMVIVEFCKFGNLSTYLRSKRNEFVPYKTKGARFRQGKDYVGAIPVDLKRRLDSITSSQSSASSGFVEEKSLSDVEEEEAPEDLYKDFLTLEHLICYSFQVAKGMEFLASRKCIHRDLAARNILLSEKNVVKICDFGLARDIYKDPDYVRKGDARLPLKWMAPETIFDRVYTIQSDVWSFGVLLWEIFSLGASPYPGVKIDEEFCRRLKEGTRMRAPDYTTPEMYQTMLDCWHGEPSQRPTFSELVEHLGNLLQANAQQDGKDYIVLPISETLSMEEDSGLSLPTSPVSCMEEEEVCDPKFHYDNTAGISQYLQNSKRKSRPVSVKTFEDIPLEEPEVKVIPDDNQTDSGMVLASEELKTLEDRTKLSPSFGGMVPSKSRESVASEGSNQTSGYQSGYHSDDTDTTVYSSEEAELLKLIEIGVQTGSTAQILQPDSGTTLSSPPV

O=C(Nc1ccc(F)cc1)C1(C(=O)Nc2ccc(Oc3ccnc4cc(OCC5CC5)c5c(c34)OCCO5)c(F)c2)CC1 [Example 11, N-(4-((5-(cyclopropylmethoxy)-2,3-dihydro-[1,4]dioxino[2,3-f]quinolin-10-yl)oxy)-3-fluorophenyl)-N-(4-fluorophenyl)cyclopropan-1,1-dicarboxamide]
IC50 (c-MET kinase): 50 to 500 nM

CC(C)COc1cc2nccc(Oc3ccc(NC(=O)C4(C(=O)Nc5ccc(F)cc5)CC4)cc3F)c2c2c1OCCO2 [Example 12, N-(4-((5-(isobutyloxy)-2,3-dihydro-[1,4]dioxino[2,3-f]quinolin-10-yl)oxy)-3-fluorophenyl)-N-(4-fluorophenyl)cyclopropan-1,1-dicarboxamide]
IC50 (c-MET kinase): 50 to 500 nM

O=C(Nc1ccc(F)cc1)C1(C(=O)Nc2ccc(Oc3ccnc4cc(OC5CCOCC5)c5c(c34)OCCO5)c(F)c2)CC1 [Example 18, N-(3-fluoro-4-((5-((tetrahydropyran-4-yl)oxy)-2,3-dihydro-[1,4]dioxino[2,3-f]quinolin-10-yl)oxy)phenyl)-N-(4-fluorophenyl)cyclopropan-1,1-dicarboxamide]
IC50 (VEGFR-2 kinase): 50 to 500 nM

CC(=O)N1CCN(CCCOc2cc3nccc(Oc4ccc(NC(=O)C5(C(=O)Nc6ccc(F)cc6)CC5)cc4F)c3c3c2OCCO3)CC1 [Example 19]
IC50 (c-MET kinase): ≤ 50 nM | IC50 (VEGFR-2 kinase): ≤ 50 nM | IC50 (MHCC97H cells): < 50 nM

N#CCOc1cc2nccc(Oc3ccc(NC(=O)C4(C(=O)Nc5ccc(F)cc5)CC4)cc3F)c2c2c1OCCO2 [Example 20, N-(4-((5-(cyanomethoxy)-2,3-dihydro-[1,4]dioxino[2,3-f]quinolin-10-yl)oxy)-3-fluorophenyl)-N-(4-fluorophenyl)cyclopropan-1,1-dicarboxamide]
IC50 (VEGFR-2 kinase): 50 to 500 nM | IC50 (MHCC97H cells): < 50 nM

CC1(N)CCN(CCCOc2cc3nccc(Oc4ccc(NC(=O)C5(C(=O)Nc6ccc(F)cc6)CC5)cc4F)c3c3c2OCCO3)CC1 [Example 30, N-(3-fluoro-4-((5-(3-(4-amino-4-methylpiperidin-1-yl)propoxy)-2,3-dihydro-[1,4]dioxino[2,3-f]quinolin-10-yl)oxy)phenyl)-N-(4-fluorophenyl)cyclopropan-1,1-dicarboxamide]
IC50 (MHCC97H cells): < 500 nM

O=C(Nc1ccc(F)cc1)C1(C(=O)Nc2ccc(Oc3ccnc4cc(OCCO)c5c(c34)OCCO5)c(F)c2)CC1 [Example 32, N-(3-fluoro-4-((5-(2-hydroxyethoxy)-2,3-dihydro-[1,4]dioxino[2,3-f]quinolin-10-yl)oxy)phenyl)-N-(4-fluorophenyl)cyclopropan-1,1-dicarboxamide]
IC50 (MHCC97H cells): < 50 nM

NC1(COc2cc3nccc(Oc4ccc(NC(=O)C5(C(=O)Nc6ccc(F)cc6)CC5)cc4F)c3c3c2OCCO3)CC1 [Example 33, N-(4-((5-((1-aminocyclopropyl)methoxy)-2,3-dihydro-[1,4]dioxino[2,3-f]quinolin-10-yl)oxy)-3-fluorophenyl)-N-(4-fluorophenyl)cyclopropan-1,1-dicarboxamide]
IC50 (MHCC97H cells): < 50 nM

COc1cc2nccc(Oc3cc(Cl)c(NC(=O)C4(C(=O)Nc5ccc(F)cc5)CC4)cc3F)c2c2c1OCCO2 [Example 35, N-(2-chloro-5-fluoro-4-((5-methoxy-2,3-dihydro-[1,4]dioxino[2,3-f]quinolin-10-yl)oxy)phenyl)-N-(4-fluorophenyl)cyclopropan-1,1-dicarboxamide]
IC50 (MHCC97H cells): < 50 nM

O=C(Nc1ccc(F)cc1)C1(C(=O)Nc2ccc(Oc3ccnc4cc(OCCCN5CCOCC5)c5c(c34)OCCO5)cc2Cl)CC1 [Example 36, N-(2-chloro-4-((5-(3-morpholinopropoxy)-2,3-dihydro-[1,4]dioxino[2,3-f]quinolin-10-yl)oxy)phenyl)-N-(4-fluorophenyl)cyclopropan-1,1-dicarboxamide]
IC50 (VEGFR-2 kinase): 50 to 500 nM | IC50 (MHCC97H cells): < 50 nM
